Key:
Experiment in all cases: -log10 GI50 (growth inhibition 50%) (-log10(M)); higher = more potent growth inhibition
[1] = system: MDAMB134VI
In short: (§1)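 Breast cancer cell lines were treated with each compound for 72 hours at nine doses in 1:5 serial dilution, in triplicate, and luminescence was read against a time-zero plate. A Gompertz curve was fitted to the dose-response data by nonlinear least squares to obtain GI50, the molar concentration giving the set level of growth inhibition, which is reported as its negative logarithm. The logarithm is base 10, and values equal to the top dose carry a < qualifier.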

[2] = system: BT474
In short: as §1

[3] = system: HCC1395
In short: as §1

[4] = system: MDAMB361
In short: as §1

[5] = system: 184A1
In short: as §1

[6] = system: MCF10A
In short: as §1

[7] = system: HCC1187
In short: as §1

[8] = system: HCC1428
In short: as §1

[9] = system: MCF7
In short: as §1

[10] = system: T47D
In short: as §1

[11] = system: MDAMB175VII
In short: as §1

[12] = system: MDAMB453
In short: as §1

[13] = system: SUM185PE
In short: as §1

[14] = system: SKBR3
In short: as §1

[15] = system: HCC1806
In short: as §1

[16] = system: HCC70
In short: as §1

[17] = system: SUM1315MO2
In short: as §1

[18] = system: HCC3153
In short: as §1

[19] = system: ZR751
In short: as §1

[20] = system: HCC1954
In short: as §1

[21] = system: MDAMB231
In short: as §1

[22] = system: SUM229PE
In short: as §1

[23] = system: MDAMB157
In short: as §1

[24] = system: SUM159PT
In short: as §1

[25] = system: MDAMB415
In short: as §1

[26] = system: T47D_KBluc
In short: as §1

[27] = system: MX1
In short: as §1

[28] = system: ZR75B
In short: as §1

[29] = system: BT20
In short: as §1

[30] = system: HS578T
In short: as §1

[31] = system: UACC812
In short: as §1

[32] = system: 184B5
In short: as §1

[33] = system: 21MT1
In short: as §1

[34] = system: SUM149PT
In short: as §1

[35] = system: HCC1937
In short: as §1

[36] = system: 21NT
In short: as §1

[37] = system: BT549
In short: as §1

[38] = system: HCC1143
In short: as §1

[39] = system: 600MPE
In short: as §1

[40] = system: CAMA1
In short: as §1

[41] = system: MCF10F
In short: as §1

[42] = system: LY2
In short: as §1

[43] = system: HCC1569
In short: as §1

[44] = system: MCF12A
In short: as §1

[45] = system: HCC38
In short: as §1

[46] = system: SUM52PE
In short: as §1

[47] = system: HCC1419
In short: as §1

[48] = system: HCC2185
In short: as §1

[49] = system: AU565
In short: as §1

[50] = system: HCC202
In short: as §1

[51] = system: HBL100
In short: as §1

[52] = system: MDAMB468
In short: as §1

[53] = system: S1
In short: as §1

[54] = system: MDAMB436
In short: as §1

[55] = system: UACC893
In short: as §1

[56] = system: BT483
In short: as §1

[57] = system: SUM44PE
In short: as §1

Compound: C[C@@H](Oc1cc(-c2cnn(C3CCNCC3)c2)cnc1N)c1c(Cl)ccc(F)c1Cl
- -log10 GI50 [1]: 5.57
- -log10 GI50 [2]: 5.11
- -log10 GI50 [3]: 5.37
- -log10 GI50 [4]: 5.44
- -log10 GI50 [5]: 5.78
- -log10 GI50 [6]: 5.59
- -log10 GI50 [7]: 7.24
- -log10 GI50 [8]: 5.13
- -log10 GI50 [9]: 5.91
- -log10 GI50 [10]: 5.34
- -log10 GI50 [11]: 5.23
- -log10 GI50 [12]: 5.59
- -log10 GI50 [13]: 5.33
- -log10 GI50 [14]: 5.14
- -log10 GI50 [15]: 6.11
- -log10 GI50 [16]: 5.46
- -log10 GI50 [17]: 5.24
- -log10 GI50 [18]: 5.16
- -log10 GI50 [19]: 5.44
- -log10 GI50 [20]: 5.45
- -log10 GI50 [21]: 5.47
- -log10 GI50 [22]: 5.57
- -log10 GI50 [23]: 5.71
- -log10 GI50 [24]: 5.79
- -log10 GI50 [25]: 5.69
- -log10 GI50 [26]: 5.31
- -log10 GI50 [27]: 5.84
- -log10 GI50 [28]: 5.64
- -log10 GI50 [29]: 5.42
- -log10 GI50 [30]: 5.85
- -log10 GI50 [31]: 5.02
- -log10 GI50 [32]: 5.42
- -log10 GI50 [33]: 5.23
- -log10 GI50 [34]: 5.7
- -log10 GI50 [35]: 5.25
- -log10 GI50 [36]: 5.18
- -log10 GI50 [37]: 5.44
- -log10 GI50 [38]: 5.7
- -log10 GI50 [39]: 6.21
- -log10 GI50 [40]: 5.23
- -log10 GI50 [41]: 5.61
- -log10 GI50 [42]: 5.8
- -log10 GI50 [43]: 5.68
- -log10 GI50 [44]: 5.38
- -log10 GI50 [45]: 5.63
- -log10 GI50 [46]: 6.28
- -log10 GI50 [47]: 4.73
- -log10 GI50 [48]: 5.18
- -log10 GI50 [49]: 5.55

Compound: Nc1ccn([C@@H]2O[C@H](CO)[C@@H](O)C2(F)F)c(=O)n1 [Gemcitabine]
- -log10 GI50 [1]: 2.85
- -log10 GI50 [2]: 4.88
- -log10 GI50 [3]: 6.47
- -log10 GI50 [5]: 6.16
- -log10 GI50 [6]: 7.7
- -log10 GI50 [7]: 5.07
- -log10 GI50 [50]: 4.82
- -log10 GI50 [8]: 3.58
- -log10 GI50 [9]: 4.77
- -log10 GI50 [10]: 6.02
- -log10 GI50 [11]: 8.12
- -log10 GI50 [13]: 6.44
- -log10 GI50 [14]: 7.97
- -log10 GI50 [15]: 8.72
- -log10 GI50 [16]: 4.58
- -log10 GI50 [17]: 6.91
- -log10 GI50 [18]: 7.19
- -log10 GI50 [19]: 7.45
- -log10 GI50 [20]: 4.51
- -log10 GI50 [21]: 5.93
- -log10 GI50 [22]: 7.3
- -log10 GI50 [51]: 7.64
- -log10 GI50 [24]: 7.99
- -log10 GI50 [25]: 6.05
- -log10 GI50 [28]: 7.34
- -log10 GI50 [30]: 5.66
- -log10 GI50 [31]: 7.75
- -log10 GI50 [32]: 6.14
- -log10 GI50 [52]: 7.01
- -log10 GI50 [34]: 7.84
- -log10 GI50 [35]: 5.97
- -log10 GI50 [37]: 8.08
- -log10 GI50 [53]: 7.04
- -log10 GI50 [38]: 7.92
- -log10 GI50 [39]: 7.64
- -log10 GI50 [40]: 6.79
- -log10 GI50 [54]: 7.49
- -log10 GI50 [41]: 7.08
- -log10 GI50 [42]: 7.62
- -log10 GI50 [43]: 6.76
- -log10 GI50 [44]: 7.17
- -log10 GI50 [45]: 8.17
- -log10 GI50 [55]: 3.54
- -log10 GI50 [47]: 4.81
- -log10 GI50 [48]: 7.61
- -log10 GI50 [49]: 7.81

Compound: CC/C(=C(\c1ccccc1)c1ccc(OCCN(C)C)cc1)c1ccccc1 [Tamoxifen]
- -log10 GI50 [1]: 6.78
- -log10 GI50 [56]: 5.47
- -log10 GI50 [2]: 5.62
- -log10 GI50 [3]: 4.37
- -log10 GI50 [4]: < 3.78
- -log10 GI50 [5]: < 3.78
- -log10 GI50 [6]: 4.16
- -log10 GI50 [7]: 4.36
- -log10 GI50 [50]: 4.55
- -log10 GI50 [8]: 5.49
- -log10 GI50 [9]: < 3.78
- -log10 GI50 [10]: < 3.78
- -log10 GI50 [57]: 7.03
- -log10 GI50 [11]: < 3.78
- -log10 GI50 [12]: 4.47
- -log10 GI50 [13]: 5.05
- -log10 GI50 [14]: 4.37
- -log10 GI50 [15]: 4.31
- -log10 GI50 [16]: < 3.78
- -log10 GI50 [17]: 4.46
- -log10 GI50 [18]: < 3.78
- -log10 GI50 [19]: < 3.78
- -log10 GI50 [20]: 4.54
- -log10 GI50 [21]: < 3.78
- -log10 GI50 [22]: 5.62
- -log10 GI50 [23]: 4.09
- -log10 GI50 [51]: 4.32
- -log10 GI50 [24]: 3.93
- -log10 GI50 [25]: 4.47
- -log10 GI50 [30]: < 3.78
- -log10 GI50 [34]: 4.11
- -log10 GI50 [35]: < 3.78
- -log10 GI50 [37]: < 3.78
- -log10 GI50 [53]: 5.84
- -log10 GI50 [38]: 4.28
- -log10 GI50 [39]: 4.35
- -log10 GI50 [40]: 4.46
- -log10 GI50 [54]: 4.51
- -log10 GI50 [41]: < 3.78
- -log10 GI50 [42]: 4.25
- -log10 GI50 [43]: < 3.78
- -log10 GI50 [44]: 4.89
- -log10 GI50 [45]: 4.28
- -log10 GI50 [55]: 4.72
- -log10 GI50 [46]: 4.28
- -log10 GI50 [47]: < 3.78
- -log10 GI50 [48]: 4.21
- -log10 GI50 [49]: 4.05

Reference: the supplement of paper PMC3937590
